The values that follow come from PubChem BioAssay (NCI).

Test systems include SK-OV-3 ovarian; UO-31 renal; OVCAR-8 ovarian; SW-620 colon; MCF7 breast; UACC-257 melanoma; OVCAR-3 ovarian; HCT-116 colon; SK-MEL-5 melanoma; OVCAR-4 ovarian; A498 renal.
Holding throughout (experiment): NCI tumour cell line growth inhibition, 48 h

Structures are written as SMILES.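 The compound was tested at five concentrations on cells cultured in 96-well plates, with a 48-hour exposure period. GI50 = concentration required for 50% inhibition of growth. TGI: total growth inhibition.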

Turning to `c1cc2nnc1SCCSCCSc1ccc(nn1)SCCSCCS2`, the TGI in the assay on SK-OV-3 ovarian, in the assay on UO-31 renal, in the assay on OVCAR-8 ovarian, with SW-620 colon, in the assay on MCF7 breast and in the assay on UACC-257 melanoma was over 100 µM in each case. The TGI in the assay on OVCAR-3 ovarian, in the assay on HCT-116 colon, with SK-MEL-5 melanoma, in the assay with OVCAR-4 ovarian and in the assay on A498 renal was over 100 µM each time.
With `CCCCCCCCCC[C@@H](O)[C@H]1CC[C@H]([C@H]2CC[C@H]([C@H](O)CCCCCCCCCC[C@@H]3CC(CC(C)=O)C(=O)O3)O2)O1` (stereo partly specified), the TGI with SK-OV-3 ovarian, with UO-31 renal, with OVCAR-8 ovarian, in the assay with SW-620 colon, in the assay on MCF7 breast and in the assay on UACC-257 melanoma was over 50 µM each time. The TGI was over 50 µM in the assay on OVCAR-3 ovarian; over 37.2 µM with HCT-116 colon; over 21.5 µM in the assay with SK-MEL-5 melanoma; over 50 µM with OVCAR-4 ovarian; over 50 µM with A498 renal. Also, the GI50 with UO-31 renal is 1.66 µM; in the assay on SW-620 colon, 5.19 µM; in the assay with MCF7 breast, 1.85 µM; in the assay with OVCAR-3 ovarian, 4.48 µM; in the assay on HCT-116 colon, 1.32 µM; in the assay with SK-MEL-5 melanoma, 1.97 µM. In addition, the GI50 with A498 renal is 7.44 µM.
With `CC[C@@H]1CC[C@@H]2[C@H](CC[C@]3(C)[C@@H](O)CC[C@@H]23)[C@H]1C(=O)O`, the TGI in the assay with SK-OV-3 ovarian, in the assay with UO-31 renal, in the assay with OVCAR-8 ovarian, with SW-620 colon, in the assay on MCF7 breast and in the assay with UACC-257 melanoma was over 100 µM throughout. Besides, the TGI in the assay with OVCAR-3 ovarian, with HCT-116 colon, in the assay on SK-MEL-5 melanoma, in the assay on OVCAR-4 ovarian and with A498 renal was over 100 µM in each case.
For `CO[C@@H](C(=O)OC1C=CC2(CC1)C(=O)N(C)c1ccccc12)c1ccccc1` (stereo partly specified), the TGI with SK-OV-3 ovarian, in the assay with UO-31 renal, in the assay with OVCAR-8 ovarian, with SW-620 colon, in the assay on MCF7 breast and with UACC-257 melanoma was over 100 µM each time. Moreover, the TGI in the assay with OVCAR-3 ovarian, in the assay on HCT-116 colon, in the assay with SK-MEL-5 melanoma, with OVCAR-4 ovarian and with A498 renal was over 100 µM in each case.
